Results on one compound are retold here after patent US8198285B2, “Pyrazine derivatives” (Astrazeneca AB, priority 2010, dated 2012).

Experiment [1] deals with DYRK1a (Dual Specificity Tyrosine Phosphorylated and Regulated Kinase 1a) (Homo sapiens, UniProt Q13627). Description: Inhibitory activity against DYRK1a. The experiment is classed as biochemical.
Experiment [2] has as its system human adipose-derived stem cells (hADSC). Description: Osteogenic differentiation and assessment of mineralisation in vitro (Alizarin Red S). Conditions: 300 nM; 24 days of cell culture; relative to vehicle control (0.2% DMSO). The experiment is classed as cell-based. As to the method: For in vitro osteogenesis, human adipose-derived stem cells (hADSC) (Invitrogen, UK; catalogue number R7788-115) were seeded into 12-well plates at a density of 5000 cells/cm^2 and were cultured in a basal media of phenol red-free Dulbecco's Modified Eagles Medium (DMEM; Sigma-Aldrich, UK; catalogue number D1145) supplemented with 5% fetal bovine serum (FBS, Gibco, UK; catalogue number 10270) and 2 mM GlutaMax® (Gibco; catalogue number 35050). […] The formation of mineralized bone nodules was assessed during the time-course using Alizarin Red S staining. […] The amount of mineralisation was quantified through the extraction of the Alizarin Red S stain from bone nodules using a cetylpyridinium chloride extraction method, previously described (Gregory et al., Analytical Biochemistry, 2004, 329: 77-84; Hwang et al., Stem Cells and Development 17: 963-970, 2008). […] Following incubation, 200 μl aliquots were transferred to 96-well format and the absorbance at 550 nm was determined using a microplate spectrophotometer (SpectraMax Plus, Molecular Devices, USA). Data were expressed as mean absorbance at 550 nm±Standard error of mean (SEM). […] Data are shown as mean absorbance at 550 nm and analysed using one-way ANOVA followed by Tukey's multiple comparison post hoc test: n=9; ***, P<0.001. […]

Counter-ions that a name gives are not always drawn.

As to `COCCCNCCCc1ccc(-c2cnc(N)c(C(=O)Nc3cccnc3)n2)cc1` [Example 1, 3-Amino-6-(4-{3-[(3-methoxypropyl)amino]propyl}phenyl)-N-pyridin-3-ylpyrazine-2-carboxamide tri-hydrochloride], the “Inhibitory activity against DYRK1a” value in experiment [1] is given as “inhibitory activity”. Also, in experiment [2], the “Alizarin red S staining of mineralised bone nodules” value is “significantly induced progenitor cell commitment and osteoblast differentiation”.
